Data reported in article PMC8467962, “Design and Synthesis of Water-Soluble and Potent MMP-13 Inhibitors with Activity in Human Osteosarcoma Cells” (International Journal of Molecular Sciences, 2021).
In brackets after ≈: the same amount, converted by molar mass. Where two headings read alike, the source gives them in different places.

How the values were obtained:
[1] = Thermodynamic solubility (shake flask method); format: physicochemical; conditions: phosphate buffer, aqueous buffer, thermodynamic from solid; PBS pH 7.4, shake flask, room temperature; read-out: Experimental Water Solubility LogS (converted)
Experimental: The samples were sonicated for 10 min and shaken overnight at 800 rpm (FB15013 TopMix, Fischer Scientific, Waltham, MA, USA) at room temperature. A first phase separation of supernatant and undissolved solid was performed by centrifugation at 5000 rpm for 20 min (Biofuge primo R). The supernatant was then transferred into Eppendorf tubes for a second centrifugation. An adequate dilution was made using the particle-free supernatant and the concentration quantified by LC-HRMS using a 4-point calibration curve (Agilent 1260 Infinity II).
PART A. Calibration curves of compounds for solubility
9e, 10a-e), 4-points calibration curves were made for each compound. Calibrations curves were obtained using four different concentrations of the corresponding compound (0.1 mg/mL, 0.01 mg/mL, 0.001 mg/mL and 0.0001 mg/mL). All samples were prepared in DMSO and measured in a LC-HRMS (Agilent 1260 Infinity II).
Figure S1. Calibration curves of all active compounds (solubility studies) (1, 2, 9a, 9e, 10a-e) […]

MMP-2 [2] = biological target: T1, MMP-2 (Homo sapiens, UniProt P08253); assay: MMP inhibition assay (MMP Inhibitor Profiling Kit, thiopeptide substrate), MMP-2; format: biochemical; conditions: catalytic domain, 37 °C, pH 7.5
T1 construct: the catalytic domains of the corresponding MMP were incubated in triplicate; purchased Enzo Life Science International, Inc
Experimental: (§1) MMP activity measurements were performed using an MMP Inhibitor Profiling Kit purchased from Enzo Life Science International, Inc. (Farmingdale, NY, USA), and following the manufacturer’s protocol with slight modifications. Proteolytic activity was measured using a thiopeptide substrate (Ac-PLG-[2-mercapto-4-methylpentanoyl]-LG-OC2H5) where the MMP cleavage site peptide bond has been replaced by a thioester bond. Hydrolysis of this bond by MMPs produces a sulfhydryl group that reacts with DTNB to form 2-nitro-5-thiobenzoic acid, which was detected by its absorbance at 414 nm (microplate photometer 90 Thermo Scientific Multiscan FC).
Enzyme reactions were carried out at 37 °C in a 100 μL final volume of solutions, where the catalytic domains of the corresponding MMP were incubated in triplicate with at least seven concentrations of inhibitors. The assay buffer contained the following components: 50 mM HEPES, 10 mM CaCl2 95, 0.05% Brij-35, and 1 mM DTNB at pH 7.5. After addition of the substrate, the increase of absorbance was recorded in 1 min time intervals for 30 min. Data were plotted as OD versus time for each sample to obtain the reaction velocity (V) in OD per min. The percentage of residual activity for each compound was calculated using the following formula: % of remaining activity = (V in the presence of inhibitor/Vcontrol) × 100. An inhibitor, NNGH, was included as a prototypic control inhibitor. IC50 calculations in MMP-13 and MMP-2 for active compounds are shown in Supplementary Materials (Figure S9)
The concentration of the compound that provided 50% inhibition of enzymatic activity (IC50) was determined by using semi-logarithmic dose–response plots (Graph Pad Prism 5.0 for Windows, Graph Pad Software Inc., San Diego, CA, USA, 2007).

MMP-13 = biological target: T2, MMP-13 (Homo sapiens, UniProt P45452); assay: MMP inhibition assay (MMP Inhibitor Profiling Kit, thiopeptide substrate), MMP-13; format: biochemical; conditions: catalytic domain, 37 °C, pH 7.5
T2 construct: the catalytic domains of the corresponding MMP were incubated in triplicate; purchased Enzo Life Science International, Inc
Experimental: as §1, with “Proteolytic activity was measured using a thiopeptide substrate (Ac-PLG-[2-mercapto-4-methylpentanoyl]-LG-OC2H5) where the MMP cleavage site peptide bond has been replaced by a thioester bond.” left out
The assay buffer contained the following components: 50 mM HEPES, 10 mM CaCl2 95, 0.05% Brij-35, and 1 mM DTNB at pH 7.5. After addition of the substrate, the increase of absorbance was recorded in 1 min time intervals for 30 min. Data were plotted as OD versus time for each sample to obtain the reaction velocity (V) in OD per min. The percentage of residual activity for each compound was calculated using the following formula: % of remaining activity = (V in the presence of inhibitor/Vcontrol) × 100. An inhibitor, NNGH, was included as a prototypic control inhibitor.

MMP-2 [3] = biological target: T1, MMP-2; parameters: method as in PMID 30629065; conditions: previous work; read-out: MMP-2 IC50; cited from earlier work

T1 sequence (P08253 110-446 limits assumed): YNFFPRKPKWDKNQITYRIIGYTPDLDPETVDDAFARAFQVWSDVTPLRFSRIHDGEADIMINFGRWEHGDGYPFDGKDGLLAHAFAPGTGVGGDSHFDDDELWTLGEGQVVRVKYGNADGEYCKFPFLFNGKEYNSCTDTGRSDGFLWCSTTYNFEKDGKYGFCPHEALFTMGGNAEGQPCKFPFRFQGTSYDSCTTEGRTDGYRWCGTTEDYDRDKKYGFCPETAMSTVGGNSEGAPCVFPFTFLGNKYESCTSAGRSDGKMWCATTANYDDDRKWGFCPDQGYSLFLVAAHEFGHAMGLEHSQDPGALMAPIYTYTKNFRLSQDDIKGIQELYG

| solubility [1] | IC50 (MMP-2 [2]) | melting point | IC50 (MMP-13) | SMILES | IC50 (MMP-2 [3]) |
| --- | --- | --- | --- | --- | --- |
| 33.9 µM (≈ 16.9 µg/mL) | 10.3 ± 2.8 nM |  |  | O=C(NO)C1(S(=O)(=O)c2ccc(-n3cc(CCn4nc5ccccc5n4)nn3)cc2)CCOCC1 [Compound 9e, 4-((4-(4-(2-(2H-benzo[d][1–3]triazol-2-yl)ethyl)-1H-1,2,3-triazol-1-yl)phenyl)sulfonyl)-N-hydroxytetrahydro-2H-pyran-4-carboxamide] |  |
|  | > 100 nM | 227 to 228 °C | > 100 nM | O=C(O)[C@H](Cc1ccccc1)NS(=O)(=O)c1ccc(-n2cc(CCn3nc4ccccc4n3)nn2)cc1 [Compound 9c, (S)-2-(4-(4-(2-(2H-benzo[d][1–3]triazol-2-yl)ethyl)-1H-1,2,3-triazol-1-yl)phenylsulfonamido)-3-phenylpropanoic acid] |  |
| 2.29 µM (≈ 1.46 µg/mL) | 14 ± 7 nM | 104 °C (dec.) |  | O=C(NO)[C@@H](Cc1ccccc1)NS(=O)(=O)c1ccc(-n2cc(CCN3C(=O)c4ccc(Br)cc4C3=O)nn2)cc1 [Compound 10d, (R)-2-((4-(4-(2-(5-bromo-1,3-dioxoisoindolin-2-yl)ethyl)-1H-1,2,3-triazol-1-yl)phenyl)sulfonamido)-N-hydroxy-3-phenylpropanamide] |  |
| 0.141 µM (≈ 0.124 µg/mL) | 17 ± 4 nM | 195 to 197 °C | 61 ± 18 nM | O=C(NO)[C@@H](Cc1ccccc1)NS(=O)(=O)c1ccc(-n2cc(CCN3C(=O)c4c(Br)c(Br)c(Br)c(Br)c4C3=O)nn2)cc1 [Compound 10c, (R)-N-hydroxy-3-phenyl-2-((4-(4-(2-(4,5,6,7-tetrabromo-1,3-dioxoisoindolin-2-yl)ethyl)-1H-1,2,3-triazol-1-yl)phenyl)sulfonamido)propenamide] |  |
| 2.4 µM (≈ 1.95 µg/mL) |  |  |  | O=C(NO)C1(S(=O)(=O)c2ccc(-n3cc(CCn4nc5c(Br)c(Br)c(Br)c(Br)c5n4)nn3)cc2)CCOCC1 [Compound 2] | 100 nM |
| 2.69 µM (≈ 1.51 µg/mL) | 3.1 ± 0.9 nM | 177 °C (dec.) |  | O=C(NO)[C@@H](Cc1ccccc1)NS(=O)(=O)c1ccc(-n2cc(CCN3C(=O)c4ccccc4C3=O)nn2)cc1 [Compound 10a, (R)-2-((4-(4-(2-(1,3-dioxoisoindolin-2-yl)ethyl)-1H-1,2,3-triazol-1-yl)phenyl)sulfonamido)-N-hydroxy-3-phenylpropanamide] |  |
